Results as given in PMC7026080, “Phenotypic high-throughput screening platform identifies novel chemotypes for necroptosis inhibition” (Cell Death Discovery, 2020).

Key:
[1] = Human microsomal clearance (in vitro); assay type: in vitro ADME; conditions: microsomes, read-out: Human microsomal clearance (in vitro) rate
[2] = Mouse pharmacokinetics, i.v.; assay type: in vivo; conditions: plasma, iv, male C57BL/6J mice, 5 mg/kg i.v.; for AUC: read-out: Mouse AUC (in vivo); for Cmax: read-out: Mouse Cmax (in vivo); for clearance: read-out: Mouse clearance (in vivo) rate; for half-life: read-out: Mouse half-life (in vivo) T1/2 (converted); for Tmax: read-out: Tmax (in vivo)
Protocol: Pharmacokinetic measurements. Pharmacokinetic studies were performed in male C57BL/6J mice by Pharmaron (Pharmaron Beijing Co Ltd, Beijing, China). Compound (5 mg/kg body weight) was administered intravenously in vehicle (57% PBS, 32% DMSO, 4% PEG 400, 3% ethanol, 4% Tween 80). Blood samples obtained postdosing were collected in plastic microcentrifuge tubes containing EDTA-K2 and centrifuged at 4000 × g for 5 min to obtain plasma. The concentration of compound in plasma samples was determined using a liquid chromatography-tandem mass spectrometry (LC-MS/MS) method by monitoring transition from m/z 541 to 383 in ESI-positive mode. PK parameters were calculated by non-compartmental model using Phoenix WinNonlin v. 6.1 (Pharsight Corp, Certara, St. Louis, MO, USA).

TNF-α-induced SIRS = experiment: TNF-α-induced systemic inflammatory response syndrome (SIRS) in mice; assay type: in vivo, mouse; conditions: 5 mg/kg i.v. 15 min before mTNF-α 0.38 mg/kg; C57BL/6J mice
From the text: To confirm that the screening strategy leads to hits functionally active in vivo, we tested one of the hits for its ability to protect against RIPK-driven inflammation in TNF-α-induced systemic inflammatory response syndrome (SIRS). This mouse model of sterile sepsis[32] is dependent on RIPK1 and RIPK3 kinase activity and independent of apoptosis and inflammasome activity.
Representative blots and quantification of p-RIPK3/RIPK3 and p-MLKL/MLKL ratios in fold-change from control. Blots were normalized to endogenous β-actin.
Nec-1 was positive control for TNF-induced SIRS protection. Body temperature and mortality were monitored up to 96 h. Further details are provided as Supplementary Information.
Animal studies, injections and monitoring. Male C57BL/6J mice with 18-26 g (Charles River Laboratories International, Inc., Wilmington, MA, USA) were used at the age of 8-14 weeks. Five to seven animals were included in each experimental group. All animal experiments were carried out with the permission of local animal ethical committee in accordance with the EU Directive (2010/63/EU), Portuguese laws (DL113/2013, 2880/2015, 260/2016) and all relevant legislations. Animals received humane care in a temperature-controlled environment with a 12 h light-dark cycle and ad libitum access to pelleted chow and water, complying with the Institute’s guidelines, and as outlined in the “Guide for the Care and Use of Laboratory Animals” prepared by the National Academy of Sciences and published by the National Institutes of Health (NIH publication 86-23 revised 1985). […] Nec-1 was diluted as follows (v/v): 48% PBS 1X, 17% DMSO and 35% PEG 400. […] All injections were administered intravenously (i.v.) in 100 µL volume each. Body temperature was recorded on mice pre-shaven back using a non-contact infrared thermometer suitable for animal use (BIO-IRB153; BioSeb, Vitrolles, France). Body temperature and mortality were monitored up to 96 h. Animals were euthanized by inhalative induction of narcosis with isoflurane at the end of the experiment, or at humane endpoints according to the Clinical Severity Score ^59.

SMILES | microsomal CLint [1] | AUC [2] | Cmax [2] | clearance [2] | half-life [2] | Tmax [2] | Survival in TNF-α-induced SIRS (TNF-α-induced SIRS) | TNF-α shock-associated hypothermia (body temperature) (TNF-α-induced SIRS)
CN1C(=O)C(Cc2c[nH]c3ccccc23)NC1=S (stereo not shown) [Nec-1, necrostatin-1] | 59 µL/min/mg | 3.21 µM·h | 11.3 µM | 101 mL/min/kg | 26.4 min | 1.8 min | all survived | fully protected from hypothermia
O=C(c1cnn(Cc2ccccc2)c1)N1CCOc2ccccc2C1 [SN-6109] | 42 µL/min/mg | 2.34 µM·h | 10.2 µM | 107 mL/min/kg | 18.6 min | 1.8 min | ~50% | gradually recovered their basal temperature in 48 h post-injection
